Data published in ChEMBL document CHEMBL4145533, “6,7-Dimorpholinoalkoxy quinazoline derivatives as potent EGFR inhibitors with enhanced antiproliferative activities against tumor cells” (Eur J Med Chem, 2018).
Activity calls are given as the source filed them. The rule behind the calls is not given here.

Legend:
A549 [1] = assay: Cell cycle arrest in human A549 cells assessed as accumulation at G2/M phase at 2 uM after 48 hrs by propidium iodide satining based FACS analysis (reference value: 16.09%); format: functional
A549 [2] = assay: Effect on total EGFR protein expression in human A549 cells at 0.2 to 5 uM after 2 hrs by Western blot analysis; format: ADME, cell-based; settings: a549, 2 h
A549 [3] = assay: Induction of apoptosis in human A549 cells assessed as viable cells at 4 uM after 48 hrs by Annexin V-FITC/propidium iodide satining based FACS analysis (reference value: 95.87%); format: functional; settings: A549, 48 h, read-out: Activity
[4] = target: T1, Epidermal growth factor receptor (Homo sapiens, UniProt P00533); assay: Inhibition of EGF-induced EGFR phosphorylation at Y1086 residue in human A549 cells at 0.2 uM preincubated for 2 hrs followed by EGF stimulation measured after 10 mins by Western blot analysis; format: cell-based
A549 [5] = assay: Induction of apoptosis in human A549 cells after 48 hrs by Annexin V-FITC/propidium iodide satining based FACS analysis; format: functional, cell-based
A549 [6] = assay: Cell cycle arrest in human A549 cells assessed as accumulation at G2/M phase at 1 uM after 48 hrs by propidium iodide satining based FACS analysis (reference value: 16.09%); format: functional
[7] = target: T1, Epidermal growth factor receptor; format: cell-based, HEK293
Description: Inhibition of recombinant human N-terminal His-tagged EGFR (1 to 645 residues) expressed in HEK293 cells by ELISA

[8] = test system: Epidermal growth factor receptor (Homo sapiens), P00533 [L858R,T790M]; assay: Inhibition of EGF-induced EGFR L858R/T790M double mutant activation in human NCI-H1975 cells assessed as reduction in ERK1/2 phosphorylation at T202/Y204 residues at 5 uM preincubated for 2 hrs followed by EGF stimulation measured after 10 mins by Western blot analysis; format: cell-based
[9] = target: T1, Epidermal growth factor receptor; settings: A549, at 5 µM
Description: Inhibition of EGF-induced EGFR phosphorylation at Y1086 residue in human A549 cells at 5 uM preincubated for 2 hrs followed by EGF stimulation measured after 10 mins by Western blot analysis

A549 [10] = assay: Cell cycle arrest in human A549 cells assessed as accumulation at G0/G1 phase at 5 uM after 48 hrs by propidium iodide satining based FACS analysis (reference value: 48.87%); format: functional
HCC827 = assay: Antiproliferative activity against human HCC827 cells harboring EGFR E746-A750 del mutant after 72 hrs by MTT assay; format: functional, cell-based; settings: HCC827, 72 h
[11] = target: T1, Epidermal growth factor receptor; settings: A549, at 5 µM; remark: listed apart in the source
Description: Inhibition of EGF-induced EGFR activation in human A549 cells assessed as reduction in ERK1/2 phosphorylation at T202/Y204 residues at 5 uM preincubated for 2 hrs followed by EGF stimulation measured after 10 mins by Western blot analysis

A549 [12] = assay: Cell cycle arrest in human A549 cells assessed as accumulation at S phase at 1 uM after 48 hrs by propidium iodide satining based FACS analysis (reference value: 34.45%); format: functional
[13] = test system: Epidermal growth factor receptor (Homo sapiens), P00533 [L858R,T790M]; assay: Inhibition of EGF-induced EGFR L858R/T790M double mutant phosphorylation at Y992 residue in human NCI-H1975 cells preincubated for 2 hrs followed by EGF stimulation measured after 10 mins by Western blot analysis; format: cell-based
A549 [14] = assay: Induction of apoptosis in human A549 cells assessed as early apoptotic cells at 2 uM after 48 hrs by Annexin V-FITC/propidium iodide satining based FACS analysis (reference value: 2.78%); format: functional
A549 [15] = assay: Induction of apoptosis in human A549 cells assessed as viable cells at 1 uM after 48 hrs by Annexin V-FITC/propidium iodide satining based FACS analysis (reference value: 95.87%); format: functional; settings: A549, 48 h, read-out: Activity
A549 [16] = assay: Cell cycle arrest in human A549 cells assessed as accumulation at G0/G1 phase at 0.5 uM after 48 hrs by propidium iodide satining based FACS analysis (reference value: 48.87%); format: functional
[17] = target: T1, Epidermal growth factor receptor; assay: Inhibition of EGF-induced EGFR phosphorylation at Y992 residue in human A549 cells at 0.2 uM preincubated for 2 hrs followed by EGF stimulation measured after 10 mins by Western blot analysis; format: cell-based
[18] = test system: Epidermal growth factor receptor (Homo sapiens), P00533 [L858R,T790M]; assay: Inhibition of EGF-induced EGFR L858R/T790M double mutant phosphorylation at Y1068 residue in human NCI-H1975 cells preincubated for 2 hrs followed by EGF stimulation measured after 10 mins by Western blot analysis; format: cell-based
A549 [19] = assay: Cell cycle arrest in human A549 cells assessed as accumulation at G2/M phase at 0.5 uM after 48 hrs by propidium iodide satining based FACS analysis (reference value: 16.09%); format: functional
[20] = target: T1, Epidermal growth factor receptor; assay: Inhibition of EGF-induced EGFR activation in human A549 cells assessed as reduction in ERK1/2 phosphorylation at T202/Y204 residues at 0.2 uM preincubated for 2 hrs followed by EGF stimulation measured after 10 mins by Western blot analysis; format: cell-based
A549 [21] = assay: Induction of apoptosis in human A549 cells assessed as late apoptotic cells at 3 uM after 48 hrs by Annexin V-FITC/propidium iodide satining based FACS analysis (reference value: 1.21%); format: functional
[22] = target: T1, Epidermal growth factor receptor; settings: A549, at 5 µM; remark: listed apart in the source
Description: Inhibition of EGF-induced EGFR activation in human A549 cells assessed as reduction in Akt phosphorylation at S473 residue at 5 uM preincubated for 2 hrs followed by EGF stimulation measured after 10 mins by Western blot analysis

A549 [23] = assay: Cell cycle arrest in human A549 cells assessed as accumulation at S phase at 0.5 uM after 48 hrs by propidium iodide satining based FACS analysis (reference value: 34.45%); format: functional
A549 [24] = assay: Effect on total Erk1/2 protein expression in human A549 cells at 0.2 to 5 uM after 2 hrs by Western blot analysis; format: ADME, cell-based; settings: a549, 2 h
[25] = test system: Epidermal growth factor receptor (Homo sapiens), P00533 [L858R,T790M]; assay: Inhibition of EGF-induced EGFR L858R/T790M double mutant phosphorylation at Tyrosine residue in human NCI-H1975 cells preincubated for 2 hrs followed by EGF stimulation measured after 10 mins by Western blot analysis; format: cell-based
SW480 = assay: Antiproliferative activity against human SW480 cells harboring wild type EGFR after 72 hrs by MTT assay; format: functional, cell-based; settings: SW480, 72 h

T1 sequence (P00533 whole entry): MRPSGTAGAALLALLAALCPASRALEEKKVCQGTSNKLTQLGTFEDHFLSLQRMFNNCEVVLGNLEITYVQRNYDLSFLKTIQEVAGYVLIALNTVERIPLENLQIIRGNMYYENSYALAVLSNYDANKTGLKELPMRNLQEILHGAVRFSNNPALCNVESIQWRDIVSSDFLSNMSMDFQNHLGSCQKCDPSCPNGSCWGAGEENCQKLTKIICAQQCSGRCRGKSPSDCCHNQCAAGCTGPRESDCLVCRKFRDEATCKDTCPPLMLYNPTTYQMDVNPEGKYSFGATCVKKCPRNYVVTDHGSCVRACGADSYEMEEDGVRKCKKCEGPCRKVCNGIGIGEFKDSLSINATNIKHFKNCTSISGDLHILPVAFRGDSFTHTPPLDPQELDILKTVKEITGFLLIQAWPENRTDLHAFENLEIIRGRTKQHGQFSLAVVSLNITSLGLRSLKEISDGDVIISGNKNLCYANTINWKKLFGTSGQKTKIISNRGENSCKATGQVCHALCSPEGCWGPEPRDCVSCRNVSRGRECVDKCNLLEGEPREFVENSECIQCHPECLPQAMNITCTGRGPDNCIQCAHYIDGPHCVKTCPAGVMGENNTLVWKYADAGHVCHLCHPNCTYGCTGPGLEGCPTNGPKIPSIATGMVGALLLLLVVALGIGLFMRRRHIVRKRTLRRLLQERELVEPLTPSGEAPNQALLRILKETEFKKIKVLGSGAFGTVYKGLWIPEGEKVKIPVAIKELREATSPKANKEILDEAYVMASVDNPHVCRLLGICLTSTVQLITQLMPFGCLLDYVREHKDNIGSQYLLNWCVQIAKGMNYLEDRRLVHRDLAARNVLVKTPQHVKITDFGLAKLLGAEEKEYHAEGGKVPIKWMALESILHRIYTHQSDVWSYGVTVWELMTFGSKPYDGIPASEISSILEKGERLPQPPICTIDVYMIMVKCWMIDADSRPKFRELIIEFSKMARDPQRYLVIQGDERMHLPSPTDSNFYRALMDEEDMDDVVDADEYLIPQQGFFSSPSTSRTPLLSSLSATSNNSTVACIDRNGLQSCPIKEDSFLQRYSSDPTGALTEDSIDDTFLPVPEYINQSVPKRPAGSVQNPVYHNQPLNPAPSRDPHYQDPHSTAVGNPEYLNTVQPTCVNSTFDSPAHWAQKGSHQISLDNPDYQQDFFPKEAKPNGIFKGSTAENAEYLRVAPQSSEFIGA
Chain of Epidermal growth factor receptor (Homo sapiens), P00533 [L858R,T790M] (P00533 whole entry T790M/L858R, looked up): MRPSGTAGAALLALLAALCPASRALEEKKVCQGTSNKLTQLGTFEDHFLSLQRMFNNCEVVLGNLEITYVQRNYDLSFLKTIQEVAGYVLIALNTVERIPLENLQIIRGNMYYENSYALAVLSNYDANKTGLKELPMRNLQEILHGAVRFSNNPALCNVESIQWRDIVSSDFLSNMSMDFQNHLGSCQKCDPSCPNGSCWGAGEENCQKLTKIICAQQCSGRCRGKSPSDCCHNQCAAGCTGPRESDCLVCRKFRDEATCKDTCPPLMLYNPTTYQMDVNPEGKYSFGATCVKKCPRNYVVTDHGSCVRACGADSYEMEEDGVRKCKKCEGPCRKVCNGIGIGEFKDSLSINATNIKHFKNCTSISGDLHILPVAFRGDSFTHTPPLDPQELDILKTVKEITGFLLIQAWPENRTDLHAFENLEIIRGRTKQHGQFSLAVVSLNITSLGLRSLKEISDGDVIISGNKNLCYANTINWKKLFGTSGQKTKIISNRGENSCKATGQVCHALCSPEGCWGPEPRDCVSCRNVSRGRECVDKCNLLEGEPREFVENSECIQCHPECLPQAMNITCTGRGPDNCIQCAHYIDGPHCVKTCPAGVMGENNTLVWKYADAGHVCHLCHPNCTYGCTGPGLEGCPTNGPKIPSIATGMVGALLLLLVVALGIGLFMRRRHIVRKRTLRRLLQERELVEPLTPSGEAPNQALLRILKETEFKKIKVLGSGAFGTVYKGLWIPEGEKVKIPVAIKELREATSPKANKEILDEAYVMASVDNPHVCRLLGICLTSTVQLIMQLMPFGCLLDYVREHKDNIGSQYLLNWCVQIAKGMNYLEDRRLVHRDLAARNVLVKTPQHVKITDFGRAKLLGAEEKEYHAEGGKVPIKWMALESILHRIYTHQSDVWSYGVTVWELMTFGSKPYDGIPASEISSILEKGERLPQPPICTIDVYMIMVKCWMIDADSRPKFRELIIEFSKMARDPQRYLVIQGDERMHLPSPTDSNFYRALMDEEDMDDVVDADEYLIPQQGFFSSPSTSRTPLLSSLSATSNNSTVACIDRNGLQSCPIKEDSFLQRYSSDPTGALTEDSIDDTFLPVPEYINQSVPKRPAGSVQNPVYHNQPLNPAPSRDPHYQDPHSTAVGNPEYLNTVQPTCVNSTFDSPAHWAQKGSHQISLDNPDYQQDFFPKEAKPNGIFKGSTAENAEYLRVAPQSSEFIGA

inhibition [4]: Active
IC50 [7]: 7 nM
inhibition [8]: Active
inhibition [9]: Active
IC50 (HCC827): 370 nM
inhibition [11]: Active
inhibition [13]: Dose-dependent effect
inhibition [17]: Active
inhibition [18]: Dose-dependent effect
inhibition [20]: Active
inhibition [22]: Active
inhibition [25]: Dose-dependent effect
IC50 (SW480): 3270 nM
Structure (SMILES): Fc1cccc(COc2ccc(Nc3ncnc4cc(OCCCN5CCOCC5)c(OCCCN5CCOCC5)cc34)cc2Cl)c1
Activity (A549 [1]): 10.56%
Activity (A549 [2]): Non-Toxic
viability at 4 µM (A549 [3]): 48.4%
Activity (A549 [5]): Dose-dependent effect
Activity (A549 [6]): 11.69%
Activity (A549 [10]): 73.54%
Activity (A549 [12]): 34.83%
Activity (A549 [14]): 4.46%
viability at 1 µM (A549 [15]): 92.3%
Activity (A549 [16]): 50.78%
Activity (A549 [19]): 14.96%
Activity (A549 [21]): 8.5%
Activity (A549 [23]): 33.8%
Activity (A549 [24]): Non-Toxic
